According to patent US20250099517A1, “Use of Lactobacillus reuteri Y7 strain for prevention or treatment of ocular diseases” (Taipei Medical University, priority 2023, published 2025):

Experiments:
Type in all cases: in vivo, C57BL/6 mice
[1] = body weights of mice during the experiment; details: LU, lutein 6.15 mg/kg bw oral daily, blue light, mean±S.E.M., in g (unit assumed)
Method: (§1) In the present invention, six-week-old male C57BL/6 mice were placed in a breeding cage in which the following feeding conditions were kept: temperature, 22±2° C., humidity, 55±5%, and the light-dark cycle of 12-hour light and 12-hour dark. The mice were fed with fodders at the adaptive phase for one week; general solid fodders for test animals were administered to mice of the control group and mice during the adaptive phase. The initial day was defined as Day 0 when the adaptive phase for the mice was over. From the next week, the mice were interfered with samples under test and exposed to blue light. During the experiments, the mice were monitored for weights as well as water intakes and checked for any physiological change. The data for experiments through electroretinography (ERG), fndus photography (FP), fundus fluorescein angiograph (FFA), spectral-domain optical coherence tomography (SD-OCT) and intraocular pressure (IOP) were collected at Day 0, Day 21 and Day 35, as shown in FIG. 1 for the experimental process. The C57BL/6 mice, which weighed between 23 and 25 g, were divided into seven groups randomly. In each group, the six mice induced by blue light successfully were incorporated in experiments. The samples dissolved in deuterium-depleted water (DDW) were fed to mice through oral tubes once a day. The groups were named and introduced as follows: • (1) Solvent not classified group (NC): The mice were fed with 0.2 ml deuterium-depleted water (DDW) through tubes; • (2) Negative control group (Blue light (BL)): The mice were fed with 0.2 ml deuterium-depleted water (DDW) through tubes and exposed to blue light; • (3) Low-dosage Y7 probiotics group […]): The mice were fed with low-dosage Y7 probiotics (probiotic counts of 1.0×10^8 CFU/ml dissolved in 0.2 ml DDW per day) and exposed to blue light; • (4) High-dosage Y7 probiotics group […]): The mice were fed with high-dosage Y7 probiotics (probiotic counts of 1.0×10^9 CFU/ml dissolved in 0.2 ml DDW per day) and exposed to blue light; • (5) Positive control group (lutein (LU)): The mice were fed with lutein and exposed to blue light. The recommended human dosage of lutein is 30 mg. The mouse cage (48×25×20 cm) placed inside a stainless ventilated box was equipped with blue light boards as blue light sources around and above. In the experiment of animals exposed to blue light, six-week-old mice staying in the mouse cage were fed with drinking water as well as fodders and exposed to 400 Lux blue light illumination under the light-dark cycle of 12-hour light and 12-hour dark. The experiment was aimed at causing mice' late dry macular disease induced by chronic light injuries for simulating a human being's macular disease after long-term exposure to short-wavelength blue light from 3C products in daily life. All data written as the form of mean±standard error of the mean (S.E.M.) were used in the statistical analysis through the one-way ANOVA and the Newman-Keuls test; p<0.05 denoted statistical difference. In the experiment, the software for the statistical analysis was Graph pad Prism (v9.2.0). The data such as food intake, water intake, body weight, organ weight and other clinical examination data were analyzed with the one-way ANOVA.

[2] = water intakes of mice during the experiment; details: LU, lutein 6.15 mg/kg bw oral daily, blue light, Mean±S.E.M., n=6
Method: as §1

[3] = test system: Bax, Bcl-2, Caspase3 gene expression; assay: q-PCR of apoptosis-related gene expression in eyes
Method: The C57BL/6 mice, which weighed between 23 and 25 g, were divided into seven groups randomly. In each group, the six mice induced by blue light successfully were incorporated in experiments. The samples dissolved in deuterium-depleted water (DDW) were fed to mice through oral tubes once a day. The groups were named and introduced as follows: • (1) Solvent not classified group (NC): The mice were fed with 0.2 ml deuterium-depleted water (DDW) through tubes; • (2) Negative control group (Blue light (BL)): The mice were fed with 0.2 ml deuterium-depleted water (DDW) through tubes and exposed to blue light; • (3) Low-dosage Y7 probiotics group […]): The mice were fed with low-dosage Y7 probiotics (probiotic counts of 1.0×10^8 CFU/ml dissolved in 0.2 ml DDW per day) and exposed to blue light; • (4) High-dosage Y7 probiotics group […]): The mice were fed with high-dosage Y7 probiotics (probiotic counts of 1.0×10^9 CFU/ml dissolved in 0.2 ml DDW per day) and exposed to blue light; • (5) Positive control group (lutein (LU)): The mice were fed with lutein and exposed to blue light. The recommended human dosage of lutein is 30 mg. The mouse cage (48×25×20 cm) placed inside a stainless ventilated box was equipped with blue light boards as blue light sources around and above. In the experiment of animals exposed to blue light, six-week-old mice staying in the mouse cage were fed with drinking water as well as fodders and exposed to 400 Lux blue light illumination under the light-dark cycle of 12-hour light and 12-hour dark. The experiment was aimed at causing mice' late dry macular disease induced by chronic light injuries for simulating a human being's macular disease after long-term exposure to short-wavelength blue light from 3C products in daily life. The eyes of a mouse sacrificed were collected for the following purposes. RNAs extracted with Trizol were reverse-transcribed to cDNAs. Then, the real-time quantitative polymerase chain reaction was enabled to detect gene expressions related to inflammatory hormones and apoptosis such as TNF-α, IL-1B, IL-6, Bax, Bcl-2, Caspase1, Caspase3 and NLRP3 for comparisons with the endogenous level of β-actin, GAPDH or 18S rRNA. [table] The gene expressions related to apoptosis in test mice' eyes, for example, Bax (FIG. 9a), Bcl-2 (FIG. 9b) and Caspase3 (FIG. 9c), were analyzed in the experiment.

[4] = after intervention of Y7 probiotics (dosage groups not distinguished)

CC1=C[C@H](O)CC(C)(C)[C@H]1/C=C/C(C)=C/C=C/C(C)=C/C=C/C=C(C)/C=C/C=C(C)/C=C/C1=C(C)C[C@@H](O)CC1(C)C [lutein, reference compound]
body weights of mice ([1]; Day 0): 21.25 ± 1.52
body weights of mice ([1]; Day 7): 21.35 ± 1.97
body weights of mice ([1]; Day 14): 22.12 ± 2.09
body weights of mice ([1]; Day 21): 22.12 ± 2.09
body weights of mice ([1]; Day 28): 22.40 ± 1.97
body weights of mice ([1]; Day 35): 22.88 ± 2.86
water intakes of mice ([2]; Day7): 3.69 ± 0.86
water intakes of mice ([2]; Day14): 4.17 ± 1.05
water intakes of mice ([2]; Day21): 4.71 ± 0.42
water intakes of mice ([2]; Day28): 3.65 ± 0.61
water intakes of mice ([2]; Day35): 3.88 ± 0.31

Lactobacillus reuteri Y7 [Y7 probiotics]
gene expression of Bcl-2 compared with the BL group ([3]; Y7H high-dosage group): increased significantly
gene expression of Bax, closeness to the NC group ([3]; Y7L low-dosage group versus LU group): closer to the NC group than the LU group
gene expression of Bax [3, 4]: significantly inhibited
gene expression of Caspase3 [3, 4]: closer to the NC group
